Article PMC11071649, “Synthesis and Selective Anticancer Activity Evaluation of 2-phenylacrylonitrile Derivatives as Tubulin Inhibitors” (Current Medicinal Chemistry, 2024)

Experiments:
Assay type in all cases: cell-based, human
[1] = system: diffuse large B-cell lymphoma SU-DHL-10 cell; assay: MTT anti-proliferative assay, SU-DHL-10; settings: for IC50: MTT, 48 h, read-out: IC50 SU-DHL-10
Procedure: (§1) The anti-proliferation activities of the synthesized analogs were assessed by an in vitro MTT assay conducted on thirteen human cell lines. Their cytotoxic activities were evaluated by measuring the inhibition of net cell growth. […]
(§2) 1.6. Cell lines and cell culture
(§3) MTT was purchased from Sigma-Aldrich Co. (St. Louis, MO, USA). The PI and Annexin V-FITC apoptosis detection kit were purchased from Invitrogen (Eugene, OR, USA). All human cell lines were used in this study. […]
(§4) cell, MCF-7 breast cancer cell, MCF-10A normal breast cell, Raji B lymphoblastoid cell and diffuse large B-cell lymphoma SU-DHL-10 cell were initially purchased from American Type Culture Collection (ATCC, Manassas, Virginia). media, DMEM, and FBS were provided from Gibco Company.
(§5) 1.7. Cell growth inhibition assay (MTT assay)
(§6) The experiment was carried out according to the method of reference. Briefly, cells were plated in 96-well plates at a den- […]
(§7) the anti-proliferative activities were determined by MTT assay. […]
(§8) (Becton-Dickinson, Franklin Lakes, NJ). […]

[2] = system: SGC-7901 early differentiation gastric cancer cell; assay: MTT anti-proliferative assay, SGC-7901; settings: for IC50: MTT, 48 h
Procedure: as §1, §2, §3, §4, §5, §6, §7, §8

[3] = system: AGS gastric cancer cell; assay: MTT anti-proliferative assay, AGS; settings: for IC50: MTT, 48 h
Procedure: as §1, §2, §3, §4, §5, §6, §7, §8

[4] = system: MCF-10A normal breast cell; assay: MTT assay, MCF-10A normal cells; settings: 48 h
Procedure: as §1, §2, §3, §4, §5, §6, §7, §8

[5] = system: L-02 normal liver cell; assay: MTT assay, L-02 normal cells; settings: 48 h
Procedure: as §1, §2, §3, §4, §5, §6, §7, §8

[6] = system: BEL-7402 liver cancer cell; assay: MTT anti-proliferative assay, BEL-7402; settings: for IC50: MTT, 48 h
Procedure: as §1, §2, §3, §4, §5, §6, §7, §8

[7] = system: MGC-803 late stage differentiation gastric cancer cell; assay: MTT anti-proliferative assay, MGC-803; settings: for IC50: MTT, 48 h
Procedure: as §1, §2, §3, §4, §5, §6, §7, §8

[8] = system: A549 lung cancer cell; assay: MTT anti-proliferative assay, A549; settings: for IC50: MTT, 48 h
Procedure: as §1, §2, §3, §4, §5, §6, §7, §8

[9] = system: HepG2 hepatoma cell; assay: MTT anti-proliferative assay, HepG2; settings: for IC50: MTT, 48 h, read-out: IC50 HepG-2
Procedure: as §1, §2, §3, §4, §5, §6, §7, §8

[10] = system: MCF-7 breast cancer cell; assay: MTT anti-proliferative assay, MCF-7; settings: MTT, 48 h
Procedure: as §1, §2, §3, §4, §5, §6, §7, §8

[11] = system: Raji B lymphoblastoid cell; assay: MTT anti-proliferative assay, Raji; settings: for IC50: MTT, 48 h, read-out: IC50 Raji
Procedure: as §1, §2, §3, §4, §5, §6, §7, §8

[12] = system: HCT116 colectal cancer cell; assay: MTT anti-proliferative assay, HCT116; settings: for IC50: MTT, 48 h, read-out: IC50 HCT-116
Procedure: as §1, §2, §3, §4, §5, §6, §7, §8

[13] = system: HeLa cervical cancer cell; assay: MTT anti-proliferative assay, HeLa; settings: MTT, 48 h
Procedure: as §1, §2, §3, §4, §5, §6, §7, §8

IC50 [1] [µM] | IC50 [2] [µM] | IC50 [3] [µM] | IC50 [6] [µM] | IC50 [7] [µM] | IC50 [8] [µM] | IC50 [9] [µM] | IC50 [10] [µM] | IC50 [11] [µM] | IC50 [12] [µM] | IC50 [13] [µM] | SMILES | SI (selectivity index), IC50 (L-02)/IC50 (AGS) [3] | IC50 [4] [µM] | IC50 [5] [µM] | SI (selectivity index), IC50 (L-02)/IC50 (HCT-116) [12] | SI (selectivity index), IC50 (L-02)/IC50 (SGC-7901) [2] | SI (selectivity index), IC50 (L-02)/IC50 (MGC-803) [7] | also measured
59.7 ± 0.8 | 20.9 ± 5.1 | 15.4 ± 0.5 | > 100 | 20.7 ± 1.5 | 32.6 ± 1.1 | 21.5 ± 7.6 | 25.5 ± 0.4 | 56.6 ± 5.8 | 19.3 ± 0.1 | 38.8 ± 3.5 | N#C/C(=C\c1ccccn1)c1cccc(OC(F)(F)F)c1 [Compound 1b3a] | – | 22.7 ± 3.5 | 35.9 ± 1.6 | – | – | – | SI (selectivity index), IC50 (L-02)/IC50 (BEL-7402) [6]: > 5.2
27.3 ± 5.3 | 89.9 ± 5.6 | 8.7 ± 2.1 | > 100 | > 100 | 71.6 ± 24.7 | > 100 | > 100 | 66.6 ± 13.3 | 57.4 ± 7.8 | > 100 | CC(C)c1ccc(/C=C(\C#N)c2ccc(OC(F)(F)F)cc2)cc1 [Compound 1a2g] | > 11.4 | > 100 | > 100 | > 1.7 | > 1.1 | – | SI (selectivity index), IC50 (L-02)/IC50 (SU-DHL-10) [1]: > 3.6; SI (selectivity index), IC50 (L-02)/IC50 (A549) [8]: > 1.3; SI (selectivity index), IC50 (L-02)/IC50 (Raji) [11]: > 1.5
> 100 | > 100 | > 100 | > 100 | > 100 | > 100 | > 100 | > 100 | > 100 | > 100 | > 100 | N#C/C(=C\c1ccccc1)c1ccccc1OC(F)(F)F [Compound 1c2a] | – | > 100 | > 100 | – | – | – | –
> 100 | 50.1 ± 5.9 | 6.3 ± 0.4 | 17.4 ± 4.2 | 13.1 ± 3.6 | 50.7 ± 7.4 | 26.7 ± 10.1 | > 100 | 60.5 ± 19.1 | > 100 | > 100 | Cc1ccc(/C=C(\C#N)c2ccccc2OC(F)(F)F)cc1 [Compound 1c2d] | > 15.6 | > 100 | > 100 | – | > 1.9 | > 7.6 | SI (selectivity index), IC50 (L-02)/IC50 (BEL-7402) [6]: > 5.7; SI (selectivity index), IC50 (L-02)/IC50 (A549) [8]: > 1.9; SI (selectivity index), IC50 (L-02)/IC50 (HepG-2) [9]: > 3.7; SI (selectivity index), IC50 (L-02)/IC50 (Raji) [11]: > 1.6
> 100 | > 100 | 16.7 ± 2.3 | > 100 | 19.6 ± 6.7 | > 100 | 27.9 ± 2.4 | > 100 | 42.4 ± 1.7 | 17.2 ± 5.2 | > 100 | N#C/C(=C\c1ccc(Br)cc1)c1ccccc1OC(F)(F)F [Compound 1c2c] | > 2.5 | > 100 | 42.2 ± 11.5 | > 2.4 | – | > 2.1 | SI (selectivity index), IC50 (L-02)/IC50 (HepG-2) [9]: > 1.5
> 100 | 7.1 ± 2.4 | > 100 | 1 ± 0.8 | 3.7 ± 1.3 | > 100 | 42.3 ± 18.2 | > 100 | 20.1 ± 2.3 | 0.3 ± 0.2 | > 100 | CN(C)c1ccc(/C=C(\C#N)c2cccc(OC(F)(F)F)c2)cc1 [Compound 1b2h] | – | > 100 | 52 ± 8.4 | > 153.1 | > 7.2 | > 13.9 | SI (selectivity index), IC50 (L-02)/IC50 (BEL-7402) [6]: > 50.5; SI (selectivity index), IC50 (L-02)/IC50 (HepG-2) [9]: > 1.3; SI (selectivity index), IC50 (L-02)/IC50 (Raji) [11]: > 2.5
> 100 | 57.2 ± 14.3 | 89.8 ± 1 | > 100 | 41.5 ± 2.1 | > 100 | > 100 | > 100 | > 100 | 30.8 ± 2.9 | > 100 | N#C/C(=C\c1ccc(N2CCCC2)cc1)c1ccc(OC(F)(F)F)cc1 [Compound 1a2t] | > 1.1 | > 100 | > 100 | > 3.2 | > 1.7 | > 2.4 | –
> 100 | > 100 | 87.2 ± 5.9 | > 100 | > 100 | > 100 | > 100 | > 100 | > 100 | > 100 | > 100 | CCCOc1ccc(/C=C(\C#N)c2ccc(OC(F)(F)F)cc2)cc1 [Compound 1a2m] | > 1.4 | > 100 | > 100 | – | – | – | –

SMILES | IC50 [1] [µM] | IC50 [2] [µM] | IC50 [3] [µM] | IC50 [6] [µM] | IC50 [7] [µM] | IC50 [8] [µM] | IC50 [9] [µM] | IC50 [10] [µM] | IC50 [11] [µM] | IC50 [12] [µM] | IC50 [13] [µM] | SI (selectivity index), IC50 (L-02)/IC50 (AGS) [3] | IC50 [4] [µM] | IC50 [5] [µM] | SI (selectivity index), IC50 (L-02)/IC50 (HCT-116) [12] | SI (selectivity index), IC50 (L-02)/IC50 (SGC-7901) [2] | SI (selectivity index), IC50 (L-02)/IC50 (MGC-803) [7] | also measured
COc1cccc(/C=C(\C#N)c2ccc(C(F)(F)F)cc2)c1 [Compound 1f2t] | > 100 | > 100 | 77.5 ± 3.9 | > 100 | > 100 | > 100 | > 100 | > 100 | > 100 | 33.2 ± 0.2 | > 100 | > 1.2 | > 100 | > 100 | > 3.0 | – | – | –
N#C/C(=C\c1ccc(Br)cc1)c1ccc(C(F)(F)F)cc1 [Compound 1f2f] | > 100 | > 100 | > 100 | > 100 | > 100 | > 100 | > 100 | > 100 | > 100 | > 100 | > 100 | – | > 100 | > 100 | – | – | – | –
N#C/C(=C\c1cccc2ccccc12)c1ccc(C(F)(F)F)cc1 [Compound 1f3d] | > 100 | > 100 | > 100 | > 100 | > 100 | > 100 | > 100 | > 100 | > 100 | > 100 | > 100 | – | > 100 | > 100 | – | – | – | –
N#C/C(=C\c1cccc(F)c1)c1ccc(C(F)(F)F)cc1 [Compound 1f2h] | 58.4 ± 9 | > 100 | > 100 | > 100 | > 100 | > 100 | > 100 | > 100 | > 100 | > 100 | > 100 | – | > 100 | > 100 | – | – | – | SI (selectivity index), IC50 (L-02)/IC50 (SU-DHL-10) [1]: > 1.7
N#C/C(=C\c1cccs1)c1ccc(C(F)(F)F)cc1 [Compound 1f3b] | > 100 | > 100 | 65 ± 17.9 | > 100 | > 100 | > 100 | > 100 | > 100 | > 100 | > 100 | > 100 | > 1.5 | > 100 | > 100 | – | – | – | –
